For 21 compounds, IC50 results are on record in patent publication US20250361230A1, “LATS Inhibitors and Uses Thereof” (The USA, as Represented by the Secretary, Dept. of Heath …, priority 2022, published 2025).

Molecules are shown by their SMILES.

One assay has as its target T1, LATS1 Kinase-NanoLuc fusion in HEK-293 cells (Homo sapiens, UniProt O95835).
T1 construct: host or cells: HEK-293
T1 sequence (O95835 1-1130): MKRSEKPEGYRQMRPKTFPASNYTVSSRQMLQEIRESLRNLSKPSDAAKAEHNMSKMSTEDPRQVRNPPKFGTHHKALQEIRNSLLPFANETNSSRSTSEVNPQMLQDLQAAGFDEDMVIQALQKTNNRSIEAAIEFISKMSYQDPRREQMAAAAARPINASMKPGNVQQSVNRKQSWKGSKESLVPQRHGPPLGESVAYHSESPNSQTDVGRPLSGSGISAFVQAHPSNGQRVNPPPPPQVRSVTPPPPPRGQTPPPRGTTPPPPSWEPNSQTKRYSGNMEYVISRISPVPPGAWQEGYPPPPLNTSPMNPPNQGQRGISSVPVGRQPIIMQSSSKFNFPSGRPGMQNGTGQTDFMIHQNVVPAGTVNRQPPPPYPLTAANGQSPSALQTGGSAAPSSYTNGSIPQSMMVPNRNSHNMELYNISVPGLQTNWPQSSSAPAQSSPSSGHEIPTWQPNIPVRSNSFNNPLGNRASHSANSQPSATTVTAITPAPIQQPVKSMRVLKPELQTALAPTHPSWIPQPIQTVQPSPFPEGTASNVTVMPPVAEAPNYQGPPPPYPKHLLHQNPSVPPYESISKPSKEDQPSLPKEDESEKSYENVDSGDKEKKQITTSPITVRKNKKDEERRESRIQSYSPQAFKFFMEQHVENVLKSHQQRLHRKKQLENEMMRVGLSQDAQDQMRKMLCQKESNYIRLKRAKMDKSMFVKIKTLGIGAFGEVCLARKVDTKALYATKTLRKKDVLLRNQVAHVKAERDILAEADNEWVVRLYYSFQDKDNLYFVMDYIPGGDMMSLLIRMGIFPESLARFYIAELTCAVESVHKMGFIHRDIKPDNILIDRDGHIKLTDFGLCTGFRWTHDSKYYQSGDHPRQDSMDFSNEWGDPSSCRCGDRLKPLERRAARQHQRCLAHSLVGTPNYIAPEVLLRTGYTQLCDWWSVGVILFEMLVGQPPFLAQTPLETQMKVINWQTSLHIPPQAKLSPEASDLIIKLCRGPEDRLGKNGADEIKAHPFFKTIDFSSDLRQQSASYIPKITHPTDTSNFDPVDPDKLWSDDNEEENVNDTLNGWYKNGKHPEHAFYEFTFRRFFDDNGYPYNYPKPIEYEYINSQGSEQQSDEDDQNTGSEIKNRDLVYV
Nature of the assay: NanoBRET target engagement assay in transfected HEK-293 cells, LATS1. The format is cell-based. The note with it: Table 28, NanoBRET, HEK-293 cells; read-out: LATS1 (Cellular) IC50. In short, it runs like this:
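HEK-293 cells transiently transfected with kinase-NanoLuc fusion plasmid for 22-24 h, then incubated with compound and NanoBRET tracer for 1 hour at 37° C. After substrate plus extracellular NanoLuc inhibitor addition, 460 and 600 nm emissions read; no-tracer-corrected BRET ratio used to derive IC50 values.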
In general terms: In BRET a luciferase serves as donor, and the signal depends on an acceptor being close.
In general, IC50 refers to the point on the concentration scale where inhibition reaches its midpoint. Take `OC1(c2ccc(-c3ccnc4[nH]cc(F)c34)cc2)CC2(CNC2)C1` [Compound 319, 6-(4-(3-fluoro-1H-pyrrolo[2,3-b]pyridin-4-yl)phenyl)-2-azaspiro[3.3]heptan-6-ol]: the half-maximal inhibitory concentration (IC50) came out at 27700 nM.

Still in this assay, the particulars now being: Table 32, NanoBRET, HEK-293 cells; read-out: LATS1 (Cellular) IC50.
Take `NCC(O)(c1ccc(Cl)cc1)c1ccc(-c2ccnc3[nH]ccc23)cc1` (stereo not drawn) [Compound 1001, 1-(4-(1H-pyrrolo[2,3-b]pyridin-4-yl)phenyl)-2-amino-1-(4-chlorophenyl)ethan-1-ol]: the IC50 is 123 nM.

For the compound `NCC(O)(c1ccc(Cl)cc1)c1ccc(-c2ccnc3[nH]cc(F)c23)cc1` (stereo not drawn) [Compound 1002, 2-amino-1-(4-chlorophenyl)-1-(4-(3-fluoro-1H-pyrrolo[2,3-b]pyridin-4-yl)phenyl)ethan-1-ol], the IC50 worked out at 55 nM.

With `COC(=O)c1c[nH]c2nccc(-c3ccc(C(O)(CN)c4ccc(Cl)cc4)cc3)c12` (stereo not drawn) [Compound 1004, Methyl 4-(4-(2-amino-1-(4-chlorophenyl)-1-hydroxyethyl)phenyl)-1H-pyrrolo[2,3-b]pyridine-3-carboxylate], the half-maximal inhibitory concentration (IC50) is 2000 nM.

As to `NCC(O)(c1ccc(Cl)cc1)c1ccc(-c2ccnc3[nH]cc(Br)c23)cc1` (stereo not drawn) [Compound 1005, 2-amino-1-(4-(3-bromo-1H-pyrrolo[2,3-b]pyridin-4-yl)phenyl)-1-(4-chlorophenyl)ethan-1-ol], the 50% inhibitory concentration (IC50) came out at 8 nM.

On to `NCC(O)(c1ccc(Cl)cc1)c1ccc(-c2ccnc3[nH]cc(-c4ccccc4)c23)cc1` (stereo not drawn) [Compound 1006, 2-amino-1-(4-chlorophenyl)-1-(4-(3-phenyl-1H-pyrrolo[2,3-b]pyridin-4-yl)phenyl)ethan-1-ol], for which the half-maximal inhibitory concentration (IC50) came out at 283 nM.

Take `NCC(O)(c1ccc(Cl)cc1)c1ccc(-c2ccnc3[nH]cc(-c4cccnc4)c23)cc1` (stereo not drawn) [Compound 1007, 2-amino-1-(4-chlorophenyl)-1-(4-(3-(pyridin-3-yl)-1H-pyrrolo[2,3-b]pyridin-4-yl)phenyl)ethan-1-ol]: the half-maximal inhibitory concentration (IC50) stood at 309 nM.

In the case of `NCC(O)(c1ccc(Cl)cc1)c1ccc(-c2ccnc3[nH]cc(Br)c23)nc1` (stereo not drawn) [Compound 1011, 2-amino-1-(6-(3-bromo-1H-pyrrolo[2,3-b]pyridin-4-yl)pyridin-3-yl)-1-(4-chlorophenyl)ethan-1-ol], the concentration for half-maximal inhibition (IC50) came to 24 nM.

Regarding `NCC(=O)NCC(O)(c1ccc(Cl)cc1)c1ccc(-c2ccnc3[nH]cc(Cl)c23)cc1` (stereo not drawn) [Compound 1021, 2-amino-N-(2-(4-(3-chloro-1H-pyrrolo[2,3-b]pyridin-4-yl)phenyl)-2-(4-chlorophenyl)-2-hydroxyethyl) acetamide], the IC50 was found to be 159 nM.

Staying with this assay, now noted: cellular.
`Cc1cc(-c2ccnc3[nH]cc(C#N)c23)cc(F)c1[C@@]1(O)[C@H](C)CN(C2CCS(=O)(=O)CC2)C[C@@H]1C` [Compound 2002, 4-(4-((3S,4s,5R)-1-(1,1-dioxidotetrahydro-2H-thiopyran-4-yl)-4-hydroxy-3,5-dimethylpiperidin-4-yl)-3-fluoro-5-methylphenyl)-1H-pyrrolo[2,3-b]pyridine-3-carbonitrile]: the IC50 is 30.4 nM.

In turn, `Cc1cc(-c2ccnc3[nH]cc(C#N)c23)cc(F)c1[C@@]1(O)[C@H](C)CN(C(=O)CN)C[C@@H]1C` [Compound 2004, 4-(3-fluoro-4-((3S,4s,5R)-1-glycyl-4-hydroxy-3,5-dimethylpiperidin-4-yl)-5-methylphenyl)-1H-pyrrolo[2,3-b]pyridine-3-carbonitrile] had an IC50 of 2.5 nM.

`Cc1cc(-c2ccnc3[nH]cc(C#N)c23)ccc1[C@@]1(O)[C@H](C)CN(C(=O)CN)C[C@@H]1C` [Compound 2005, 4-(4-((3S,4s,5R)-1-glycyl-4-hydroxy-3,5-dimethylpiperidin-4-yl)-3-methylphenyl)-1H-pyrrolo[2,3-b]pyridine-3-carbonitrile] gave an IC50 of 46.6 nM.

As to `Cc1cc(-c2ccnc3[nH]cc(C#N)c23)cc(F)c1[C@@]1(O)[C@H](C)CN(C(=O)[C@H](N)CO)C[C@@H]1C` [Compound 2007, 4-(4-((3S,4S,5R)-1-(D-seryl)-4-hydroxy-3,5-dimethylpiperidin-4-yl)-3-fluoro-5-methylphenyl)-1H-pyrrolo[2,3-b]pyridine-3-carbonitrile], the concentration for half-maximal inhibition (IC50) is less than 2.5 nM.

With `Cc1cc(-c2ccnc3[nH]cc(C#N)c23)cc(F)c1[C@@]1(O)[C@H](C)CN(C(=O)[C@](C)(N)CO)C[C@@H]1C` [Compound 2008, 4-(4-((3S,4s,5R)-1-(2-amino-3-hydroxy-2-methylpropanoyl)-4-hydroxy-3,5-dimethylpiperidin-4-yl)-3-fluoro-5-methylphenyl)-1H-pyrrolo[2,3-b]pyridine-3-carbonitrile], the IC50 was less than 2.5 nM.

Regarding `Cc1cc(-c2ccnc3[nH]cc(C#N)c23)cc(F)c1[C@@]1(O)[C@H](C)CN(C(=O)[C@H](C)N)C[C@@H]1C` [Compound 2011, 4-(4-((3S,4R,5R)-1-(L-alanyl)-4-hydroxy-3,5-dimethylpiperidin-4-yl)-3-fluoro-5-methylphenyl)-1H-pyrrolo[2,3-b]pyridine-3-carbonitrile], the half-inhibitory concentration (IC50) is less than 2.5 nM.

In the case of `CNCC(=O)N1C[C@@H](C)[C@](O)(c2c(C)cc(-c3ccnc4[nH]cc(C#N)c34)cc2F)[C@@H](C)C1` [Compound 2012, 4-(3-fluoro-4-((3S,4s,5R)-4-hydroxy-3,5-dimethyl-1-(methylglycyl)piperidin-4-yl)-5-methylphenyl)-1H-pyrrolo[2,3-b]pyridine-3-carbonitrile], the IC50 is less than 2.5 nM.

`Cc1cc(-c2ccnc3[nH]cc(C#N)c23)cc(F)c1[C@@]1(O)[C@H](C)CN(C(=O)CNCC(F)(F)F)C[C@@H]1C` [Compound 2014, 4-(3-fluoro-4-((3S,4s,5R)-4-hydroxy-3,5-dimethyl-1-((2,2,2-trifluoroethyl)glycyl)piperidin-4-yl)-5-methylphenyl)-1H-pyrrolo[2,3-b]pyridine-3-carbonitrile] gave an IC50 of 139 nM.

Consider `Cc1cc(-c2ccnc3[nH]cc(C#N)c23)cc(F)c1[C@@]1(O)[C@H](C)CN(C(=O)[C@@H](C)N)C[C@@H]1C` [Compound 2015, 4-(4-((3S,4S,5R)-1-(D-alanyl)-4-hydroxy-3,5-dimethylpiperidin-4-yl)-3-fluoro-5-methylphenyl)-1H-pyrrolo[2,3-b]pyridine-3-carbonitrile], for which the IC50 is less than 2.5 nM.

As to `Cc1cc(-c2ccnc3[nH]cc(C#N)c23)cc(F)c1[C@@]1(O)[C@H](C)CN(C(=O)C(N)C(F)(F)F)C[C@@H]1C` (stereo partly drawn) [Compound 2017, 4-(4-((3S,4s,5R)-1-(2-amino-3,3,3-trifluoropropanoyl)-4-hydroxy-3,5-dimethylpiperidin-4-yl)-3-fluoro-5-methylphenyl)-1H-pyrrolo[2,3-b]pyridine-3-carbonitrile], the concentration for half-maximal inhibition (IC50) is less than 2.5 nM.

In turn, `Cc1cc(-c2ccnc3[nH]cc(C#N)c23)cc(F)c1[C@@]1(O)[C@H](C)CN(C(=O)[C@H](CO)N(C)C)C[C@@H]1C` [Compound 2023, 4-(4-((3S,4R,5R)-1-(dimethyl-L-seryl)-4-hydroxy-3,5-dimethylpiperidin-4-yl)-3-fluoro-5-methylphenyl)-1H-pyrrolo[2,3-b]pyridine-3-carbonitrile] showed an IC50 of less than 2.5 nM.

In turn, `Cc1cc(-c2ccnc3[nH]cc(C#N)c23)cc(F)c1[C@@]1(O)[C@H](C)CNC[C@@H]1C` [Compound 2024, 4-(3-fluoro-4-((3S,4s,5R)-4-hydroxy-3,5-dimethylpiperidin-4-yl)-5-methylphenyl)-1H-pyrrolo[2,3-b]pyridine-3-carbonitrile] showed a half-inhibitory concentration (IC50) of 37.9 nM.
